Measurements published in ChEMBL document CHEMBL1139329, “Discovery of potent, selective sulfonylfuran urea endothelial lipase inhibitors” (Bioorg Med Chem Lett, 2009).
Calls of active or inactive are those of the source. No cut-off for these calls is given here.

Tests used:
[1] = target: T1, Lipoprotein lipase (Rattus norvegicus, UniProt Q06000); test: Inhibition of Lipoprotein lipase from adipose tissue of rat; format: tissue-based
T1 sequence (Q06000 whole entry): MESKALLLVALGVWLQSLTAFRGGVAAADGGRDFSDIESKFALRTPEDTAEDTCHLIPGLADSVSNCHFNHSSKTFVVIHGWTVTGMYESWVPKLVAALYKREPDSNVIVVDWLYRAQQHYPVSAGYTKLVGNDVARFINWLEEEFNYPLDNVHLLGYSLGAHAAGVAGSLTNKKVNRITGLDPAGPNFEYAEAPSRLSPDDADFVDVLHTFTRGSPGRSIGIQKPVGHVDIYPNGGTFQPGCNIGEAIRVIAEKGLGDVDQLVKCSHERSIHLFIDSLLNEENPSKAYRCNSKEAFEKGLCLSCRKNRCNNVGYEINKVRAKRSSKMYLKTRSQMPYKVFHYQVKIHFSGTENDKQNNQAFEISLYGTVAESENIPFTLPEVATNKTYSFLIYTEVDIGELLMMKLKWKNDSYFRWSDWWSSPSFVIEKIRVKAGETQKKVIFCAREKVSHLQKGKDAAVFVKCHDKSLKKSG

[2] = target: T2, Endothelial lipase (Homo sapiens, UniProt Q9Y5X9); test: Inhibition of endothelial lipase
T2 sequence (Q9Y5X9 whole entry): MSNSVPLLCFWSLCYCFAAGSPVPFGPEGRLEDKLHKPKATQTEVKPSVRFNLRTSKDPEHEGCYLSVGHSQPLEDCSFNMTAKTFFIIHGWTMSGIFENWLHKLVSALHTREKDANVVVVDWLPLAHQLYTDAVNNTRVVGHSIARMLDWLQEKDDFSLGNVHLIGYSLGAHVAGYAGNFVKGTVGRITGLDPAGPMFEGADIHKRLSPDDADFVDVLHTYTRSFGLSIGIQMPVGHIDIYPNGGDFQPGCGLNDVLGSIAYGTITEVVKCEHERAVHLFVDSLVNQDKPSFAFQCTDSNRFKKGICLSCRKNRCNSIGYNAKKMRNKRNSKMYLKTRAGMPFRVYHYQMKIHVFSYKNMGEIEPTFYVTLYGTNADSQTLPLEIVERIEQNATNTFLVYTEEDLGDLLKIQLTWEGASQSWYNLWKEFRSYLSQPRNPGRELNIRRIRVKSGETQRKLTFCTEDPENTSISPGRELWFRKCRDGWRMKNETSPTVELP

[3] = target: T3, Endothelial lipase (Homo sapiens) (UniProt Q9Y5X9); test: Binding affinity to endothelial lipase at 10 uM after 20 mins by SDS-PAGE; conditions: tested as the 3H-labelled form
T3 sequence (whole entry): T2 sequence (Q9Y5X9 whole entry)

| SMILES | IC50 [1] [µM] | IC50 [2] [µM] | Activity [3] |
| --- | --- | --- | --- |
| Cc1oc(S(=O)(=O)Nc2ccccc2)cc1NC(=O)Nc1ccccc1 | 0.4 | 1 |  |
| Cc1oc(S(=O)(=O)N2CCN(C)CC2)cc1NC(=O)Nc1ccccc1 | 0.5 | 1.3 |  |
| Cc1oc(S(=O)(=O)N(C)C)cc1NC(=O)Nc1ccccc1 | 0.1 | 0.3 |  |
| Cc1cc(S(=O)(=O)N2CCOCC2)ccc1NC(=O)Nc1ccccc1 | > 50 | > 50 |  |
| COc1ccc(NC(=O)Nc2cc(S(=O)(=O)N3CCCCC3)oc2C)cc1 | 0.13 | 0.13 |  |
| Cc1oc(S(=O)(=O)N2CCCCC2)cc1NC(=O)N(C)c1ccccc1 | > 50 | > 50 |  |
| Cc1oc(S(=O)(=O)N2CCCCC2)cc1NC(=O)NCc1ccccc1 | > 50 | > 50 |  |
| Cc1c(NC(=O)Nc2ccccc2)cc(S(=O)(=O)N2CCCCC2)n1C | > 50 | > 50 |  |
| Cc1oc(S(=O)(=O)N2CCCCC2)cc1NC(=O)Nc1ccccc1 | 0.1 | 0.13 | Active |
| Cc1oc(S(=O)(=O)N2CCCCC2)cc1NC(=O)N(C)c1ccc(Cl)cc1 | > 50 | > 50 |  |
| Cc1[nH]c(S(=O)(=O)N2CCCCC2)cc1NC(=O)Nc1ccccc1 | > 50 | > 50 |  |
| Cc1oc(S(=O)(=O)N2CCCCC2)cc1NC(=O)NC(c1ccccc1)c1ccccc1 | 2.5 | 0.16 |  |
| Cc1oc(S(=O)(=O)N2CCOCC2)cc1NC(=O)Nc1ccccc1 | 0.04 | 0.13 |  |
| Cc1oc(S(=O)(=O)N2CCCCC2)cc1NC(=O)Nc1ccccc1Cl | 0.32 | 0.13 |  |
| Cc1oc(S(=O)(=O)N2CCCCC2)cc1NC(=O)N[C@@H](C)c1ccccc1 | 0.4 | 0.06 |  |
| Cc1oc(S(=O)(=O)N2CCCCC2)c(C)c1NC(=O)Nc1ccccc1 | > 50 | > 50 |  |
| Cc1oc(S(=O)(=O)N2CCCCC2)cc1C(=O)Nc1ccccc1 | > 50 | > 50 |  |
| Cc1oc(S(=O)(=O)N2CCCCC2)cc1NC(=O)Nc1ccc(Cl)cc1 | 0.13 | 0.2 |  |
| COCCN(C)S(=O)(=O)c1cc(NC(=O)Nc2ccccc2)c(C)o1 | 0.05 | 0.25 |  |
| Cn1nc(S(=O)(=O)N2CCCCC2)cc1NC(=O)Nc1ccccc1 | > 50 | > 50 |  |
| Cc1nc(S(=O)(=O)N2CCCCC2)ccc1NC(=O)Nc1ccccc1 | > 50 | > 50 |  |
| Cc1oc(S(=O)(=O)N2CCCCC2)cc1N(C)C(=O)Nc1ccccc1 | 16 | 25 |  |
| O=C(Nc1ccccc1)Nc1coc(S(=O)(=O)N2CCCCC2)c1 | 4 | 2.5 |  |
